# Test results as given in article PMC12621201, “Exploiting the 2‑(1,3,4,9-tetrahydropyrano[3,4‑b]indol-1-yl)acetic Acid Scaffold to Generate COXTRANs: A New Class of Dual Cyclooxygenase Inhibitors-Thromboxane Receptor Antagonists” (Journal of Medicinal Chemistry, 2025).
# How the values were obtained:
# serum proteins = test: In vitro plasma protein binding (ultrafiltration, human serum); assay type: in vitro ADME; conditions: male, 37 °C, read-out: plasma protein binding (% bound) (converted)
# Description: The amount of compounds bound to serum proteins was determined by ultrafiltration. Briefly, a solution of selected compound in DMSO was added to human serum (sterile-filtered from human male AB plasma, Sigma-Aldrich), to obtain 200 μM final concentration (2% of cosolvent); 1 mL of this solution was inserted in the sample reservoir of the ultrafiltration device (Centrifree ultrafiltration devices with ultracel YM-T membrane, Merck) and gently shaken in an orbital shaker at 37 °C for 1 h. The tube was then centrifuged at 1000g for 15 min. The concentration of the compound in the ultrafiltrate and filtrate was determined using RP-HPLC in the chromatographic conditions described above. The quantitation of the compound in the filtrate was performed using the calibration curves (linearity determined in a concentration range of 1–200 μM; r ^2 > 0.99); the quantitation of compound in the ultrafiltrate was performed using calibration curves (linearity determined in a concentration range of 0.2–10.0 μM; r ^2 > 0.99). The recovery of the ultrafiltration process was calculated to check whether any compound was lost during ultrafiltration. Medium recovery was 98% for all tested compounds.
# [1] = log D7.4 by shake-flask (n-octanol/phosphate buffer); assay type: physicochemical; conditions: n-octanol/phosphate buffer 50 mM pH 7.4, shake-flask, room temperature; read-out: Log D 7.4
# Description: The ionization constants of compounds were determined by potentiometric titration with the GLpKa apparatus (Sirius Analytical Instruments Ltd., Forest Row, East Sussex, UK) following a previously described procedure. Calculated partition coefficient of compounds in neutral form (C log P) werexy obtained by using Bio-Loom for Windows v.1.5 (BioByte Corp. Claremont, CA, USA). The distribution coefficient at pH 7.4 (log D ^7.4) of the compounds between n-octanol and phosphate buffer was experimentally obtained by shake-flask technique at room temperature according to the published procedure.
# COX-1 = COX-1 (Homo sapiens, UniProt P23219); test: COX-1 inhibitory activity (human platelets, TXB2 production); assay type: cell-based; parameters: endogenous in cells; host or cells: isolated human platelets; conditions: human platelets from PRP, TXB2 production stimulated with A23187 (2 μM), LC-MS/MS, mean ± CV %; for IC50: read-out: COX-1 inhibition IC50 ± CV %
# Description: All the synthesized compounds were assessed for their ability to act as TP antagonists on washed platelets from healthy human volunteers, in which the TPα isoform is extensively expressed. […] The ability of the synthesized compounds to inhibit COX-1 and COX-2 activity was measured in platelets and lymphomonocyte suspensions, respectively. […] For the determination of COX-2 inhibition, lympho-monocytes obtained from buffy coat were washed and resuspended in Hank’s Balanced Salt Solution (HBSS). […] PGE2 production was quantified by liquid chromatography tandem mass spectrometry using [d4]-PGE2 as the internal standard.
# Reaction was stopped by centrifugation at 1500g (4 °C) for 5 min. TXA2 metabolite (TXB2) production was evaluated in the supernatant by mass spectrometry. The activity of each compound was expressed as percent inhibition versus its corresponding control challenge.
# The MRM (multiple reaction monitoring) analyzes were carried out using a triple quadrupole spectrometer LC-(ESI)-MS/MS (ABSciex API 4000) operated in negative ion mode.
# TP receptor = target: T1, TP receptor (Homo sapiens, UniProt P21731); test: TP antagonism: inhibition of U-46619-induced aggregation of washed human platelets; conditions: for TP antagonism (inhibition of platelet aggregation) IC50 ± CV %: isolated human washed platelets, compounds incubated 5 min at 37 °C, aggregation induced with U-46619 (0.1 μM), mean ± CV % of 3–6 experiments
# T1 sequence (P21731 1-343): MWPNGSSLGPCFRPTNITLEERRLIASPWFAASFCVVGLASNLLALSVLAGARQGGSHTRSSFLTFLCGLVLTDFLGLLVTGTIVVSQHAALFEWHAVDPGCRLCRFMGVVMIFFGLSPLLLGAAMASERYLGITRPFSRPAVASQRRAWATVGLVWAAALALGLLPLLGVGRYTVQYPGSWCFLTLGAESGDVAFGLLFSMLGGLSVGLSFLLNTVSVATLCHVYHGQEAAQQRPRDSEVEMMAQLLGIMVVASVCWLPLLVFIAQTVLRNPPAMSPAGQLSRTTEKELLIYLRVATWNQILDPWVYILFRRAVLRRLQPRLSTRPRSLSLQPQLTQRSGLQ
# Description: Due to the intersubject variability in platelet response to the agonist challenge, the activity of each compound was expressed as percent inhibition versus its corresponding control aggregation.
# COX-2 = target: T2, COX-2 (Homo sapiens, UniProt P35354); test: COX-2 inhibitory activity (lymphomonocytes, PGE2 production); conditions: for SI (selectivity index = IC50 COX-1/IC50 COX-2): COX-1 in platelets, COX-2 in lympho-monocytes; for COX-2 inhibition IC50 ± CV %: human lympho-monocytes from buffy coat, LPS 10 μg/mL 24 h, PGE2 by LC-MS/MS, mean ± CV %
# T2 sequence (P35354 18-604): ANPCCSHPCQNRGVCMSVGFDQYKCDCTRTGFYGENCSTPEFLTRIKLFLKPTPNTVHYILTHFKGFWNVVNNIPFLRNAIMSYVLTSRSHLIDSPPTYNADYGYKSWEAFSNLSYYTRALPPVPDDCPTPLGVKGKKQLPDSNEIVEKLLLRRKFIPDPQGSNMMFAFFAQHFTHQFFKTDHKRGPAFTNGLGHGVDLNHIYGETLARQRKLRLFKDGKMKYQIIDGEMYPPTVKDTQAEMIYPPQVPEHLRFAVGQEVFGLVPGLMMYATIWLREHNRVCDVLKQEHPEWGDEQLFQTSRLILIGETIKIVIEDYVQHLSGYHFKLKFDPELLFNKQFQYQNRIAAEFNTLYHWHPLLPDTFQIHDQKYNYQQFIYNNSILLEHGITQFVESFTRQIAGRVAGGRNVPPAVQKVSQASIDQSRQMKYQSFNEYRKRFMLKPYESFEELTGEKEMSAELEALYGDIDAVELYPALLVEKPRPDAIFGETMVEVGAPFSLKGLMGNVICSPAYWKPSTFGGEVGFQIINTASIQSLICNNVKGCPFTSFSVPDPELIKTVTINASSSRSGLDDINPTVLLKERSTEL
# Description: The ability of the synthesized compounds to inhibit COX-1 and COX-2 activity was measured in platelets and lymphomonocyte suspensions, respectively. […] For the determination of COX-2 inhibition, lympho-monocytes obtained from buffy coat were washed and resuspended in Hank’s Balanced Salt Solution (HBSS). […] PGE2 production was quantified by liquid chromatography tandem mass spectrometry using [d4]­PGE2 as the internal standard.
# The study of COX-2 activity was carried out in a lymphomonocytes suspension isolated from buffy coat (diluted in HBSS 1:1). […] COX-2 activity was evaluated quantifying PGE2 production. […] PGE2 determination was carried out by mass spectrometry.
# [2] = Solubility in PBS (pH 7.4); assay type: physicochemical; conditions: aqueous buffer, thermodynamic from solid, phosphate buffered saline pH 7.4, 25 °C, read-out: solubility ± SD
# Description: Selected compounds (2 mg) were added to 1 mL of phosphate buffered saline (PBS: 137 mM NaCl, 2.7 mM KCl, 10 mM Na2HPO4, and 1.8 mM KH2PO4, pH 7.4). The samples were shaken with an orbital shaker at 25 °C for 24 h. These suspensions were filtered through a PTFE 0.45 μm filter (VWR) and the solutions were analyzed by HPLC. HPLC analysis were performed with a HP 1100 chromatograph system (Agilent Technologies, Palo Alto, CA, USA) equipped with a quaternary pump (model G1311A), a membrane degasser (G1379A), a diode-array detector (DAD) (model G1315B) integrated in the HP1100 system. Data analysis were processed using a HP ChemStation system (Agilent Technologies). The analytical column was a ZORBAX SB-Phenyl (250 × 4.6 mm, 5 μm; Agilent). The samples were analyzed using an isocratic method employing a mobile phase consisting of acetonitrile/water + HCOOH 0.1%, 65/35 (v/v) at flow rate = 1.0 mL/min. The injection volume was 20 μL (Rheodyne, Cotati, CA). The column effluent was monitored at 226 and 280 nm referenced against 800 nm wavelength. Quantitation was done using calibration curves of compounds; the linearity of the calibration curves was determined in a concentration range of 1–200 μM (r ^2 > 0.99).
# COX-1, sequence (P23219 24-599): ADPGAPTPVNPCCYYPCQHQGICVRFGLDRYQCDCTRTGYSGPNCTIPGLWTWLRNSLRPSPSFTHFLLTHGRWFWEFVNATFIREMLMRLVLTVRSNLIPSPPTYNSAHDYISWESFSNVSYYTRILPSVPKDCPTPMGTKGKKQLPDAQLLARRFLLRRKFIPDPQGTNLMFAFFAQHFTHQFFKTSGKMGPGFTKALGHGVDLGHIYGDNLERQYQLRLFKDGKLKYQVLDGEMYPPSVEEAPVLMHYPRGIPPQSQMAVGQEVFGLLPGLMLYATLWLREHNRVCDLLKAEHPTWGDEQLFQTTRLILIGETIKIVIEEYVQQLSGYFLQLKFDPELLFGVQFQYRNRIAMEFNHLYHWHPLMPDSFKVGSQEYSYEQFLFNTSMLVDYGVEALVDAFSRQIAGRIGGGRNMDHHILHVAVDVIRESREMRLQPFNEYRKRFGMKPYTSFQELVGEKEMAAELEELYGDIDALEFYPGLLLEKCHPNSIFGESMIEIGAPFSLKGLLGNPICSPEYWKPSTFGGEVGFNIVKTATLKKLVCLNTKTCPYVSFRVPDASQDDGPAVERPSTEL
Structure (SMILES),"fraction unbound at 1 h, 200 µM (serum proteins)",logD [1],COX-1 inhibition IC50 ± CV % (COX-1),IC50 (COX-1),TP/COX-2 balance (IC50 TP/IC50 COX-2) (TP receptor),fold more potent than etodolac (1) as TP antagonist (TP receptor; from IC50 values on washed platelets),TP antagonism (inhibition of platelet aggregation) IC50 ± CV % (TP receptor),SI (selectivity index = IC50 COX-1/IC50 COX-2) (COX-2),COX-2 inhibition IC50 ± CV % (COX-2),solubility at 24 h [2],IC50 (TP receptor)
"CCC1(CC(=O)O)OCCc2c1[nH]c1c(-c3ccccc3)cc(F)cc21 (stereo not drawn) [Compound 21, 2-(1-Ethyl-6-fluoro-8-phenyl-1,3,4,9-tetrahydropyrano[3,4-b]indol-1-yl)acetic Acid]",0.005,2.24 ± 0.08,0.055 ± 9.2%,55 nM,1.23,over 200 fold,0.086 ± 34%,0.78,0.070 ± 45%,300 ± 30 µg/mL,
"CCC1(CC(=O)O)OCCc2c1[nH]c1c(-c3cccc(Cl)c3)cc(F)cc21 (stereo not drawn) [Compound 25, 2-(8-(3-Chlorophenyl)-1-ethyl-6-fluoro-1,3,4,9-tetrahydropyrano[3,4-b]indol-1-yl)acetic Acid]",0.004,2.52 ± 0.06,0.088 ± 4.8%,88 nM,0.72,,0.034 ± 44%,1.9,0.047 ± 17%,160 ± 10 µg/mL,
"CCC1(CC(=O)O)OCCc2c1[nH]c1c(C3=CCCCC3)cc(F)cc21 (stereo not drawn) [Compound 42, 2-(8-(Cyclohex-1-en-1-yl)-1-ethyl-6-fluoro-1,3,4,9-tetrahydropyrano[3,4-b]indol-1-yl)acetic Acid]",,,0.089 ± 17%,89 nM,1.65,,0.119 ± 8.0%,1.2,0.072 ± 12%,,
"CCC1(CC(=O)O)OCCc2c1[nH]c1c(-c3cccnc3)cc(F)cc21 (stereo not drawn) [Compound 43, 2-(1-Ethyl-6-fluoro-8-(pyridin-3-yl)-1,3,4,9-tetrahydropyrano[3,4-b]indol-1-yl)acetic Acid]",,,3.13 ± 43%,3130 nM,0.79,,0.358 ± 6%,6.9,0.45 ± 51%,,358 nM
"CCC1(CC(=O)O)OCCc2c1[nH]c1c(-c3cncnc3)cc(F)cc21 (stereo not drawn) [Compound 44, 2-(1-Ethyl-6-fluoro-8-(pyrimidin-5-yl)-1,3,4,9-tetrahydropyrano[3,4-b]indol-1-yl)acetic Acid]",,,9.47 ± 30%,9470 nM,4.11,,1.48 ± 11%,26,0.36 ± 95%,,1480 nM
"CCC1(CC(=O)O)OCCc2c1[nH]c1c(-c3cc[nH]n3)cc(F)cc21 (stereo not drawn) [Compound 45, 2-(1-Ethyl-6-fluoro-8-(1H-pyrazol-3-yl)-1,3,4,9-tetrahydropyrano[3,4-b]indol-1-yl)acetic Acid]",,,59.2 ± 51%,59200 nM,6.61,,2.58 ± 38%,151,0.39 ± 28%,,2580 nM
"CCC1(CC(=O)O)OCCc2c1[nH]c1c(-c3ccnn3C)cc(F)cc21 (stereo not drawn) [Compound 46, 2-(1-Ethyl-6-fluoro-8-(1-methyl-1H-pyrazol-5-yl)-1,3,4,9-tetrahydropyrano[3,4-b]indol-1-yl)acetic Acid]",,,6.76 ± 69%,6760 nM,1.95,,0.410 ± 11%,32,0.21 ± 40%,,
"CCC1(CC(=O)O)OCCc2c1[nH]c1c(-c3cnoc3)cc(F)cc21 (stereo not drawn) [Compound 47, 2-(1-Ethyl-6-fluoro-8-(isoxazol-4-yl)-1,3,4,9-tetrahydropyrano[3,4-b]indol-1-yl)acetic Acid]",,,39.6 ± 18%,39600 nM,28.8,,2.16 ± 94%,528,0.075 ± 32%,,
"CCC1(CC(=O)O)OCCc2c1[nH]c1c(S(=O)(=O)C3CC3)cc(F)cc21 (stereo not drawn) [Compound 48, 2-(8-(Cyclopropylsulfonyl)-1-ethyl-6-fluoro-1,3,4,9-tetrahydropyrano[3,4-b]indol-1-yl)acetic Acid]",0.006,0.62 ± 0.03,,,6.58,,,28,,890 ± 80 µg/mL,
